Measured values as given in ChEMBL document CHEMBL1201862, “PubChem BioAssay data set” (2004).
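Compound exposure: 48 hours, 5 concentrations, 96-well plates. At the GI50, growth is halved.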 The source made the active and inactive calls. No stated cut-off is given here; in the data, active = GI50 up to about 1.1 µM and inactive = higher.

Key:
Assay in all cases: DTP human tumour cell line panel, 48 h
SW-620 = test system: SW-620
TK-10 = test system: TK-10
HCT-116 = test system: HCT-116
SR = test system: SR
IGROV-1 = test system: IGROV-1
SK-MEL-5 = test system: SK-MEL-5
Malme-3M = test system: Malme-3M
XF498 = test system: XF498
SF-295 = test system: SF-295
OVCAR-4 = test system: OVCAR-4
DLD-1 = test system: DLD-1
OVCAR-3 = test system: OVCAR-3
NCI-H460 = test system: NCI-H460
M14 = test system: M14
LOX IMVI = test system: LOX IMVI
HL-60 = test system: HL-60
NCI-H522 = test system: NCI-H522
M19-MEL = test system: M19-MEL
SNB-78 = test system: SNB-78
LXFL 529 = test system: LXFL 529

Compound	GI50 (SW-620)	GI50 (TK-10)	GI50 (HCT-116)	GI50 (SR)	GI50 (IGROV-1)	GI50 (SK-MEL-5)	GI50 (Malme-3M)	GI50 (XF498)	GI50 (SF-295)	GI50 (OVCAR-4)	GI50 (DLD-1)	GI50 (OVCAR-3)	GI50 (NCI-H460)	GI50 (M14)	GI50 (LOX IMVI)	GI50 (HL-60)	GI50 (NCI-H522)	GI50 (M19-MEL)	GI50 (SNB-78)	GI50 (LXFL 529)
C#CCCCCC#CC1CCCC1C1=CC(=O)c2ccccc21 (centres undefined)	2.28 µM (inactive)	20.3 µM (inactive)	1.47 µM (inactive)	2.79 µM (inactive)	6 µM (inactive)	7.67 µM (inactive)	6.55 µM (inactive)	8.36 µM (inactive)	5.25 µM (inactive)	10.3 µM (inactive)	8.71 µM (inactive)	5.3 µM (inactive)	15.3 µM (inactive)	5.07 µM (inactive)	3.22 µM (inactive)	1.33 µM (inactive)	7.93 µM (inactive)			
N#CC(OC1OC(COC2OC(CO)C(O)C(O)C2O)C(O)C(O)C1O)c1ccccc1 (centres undefined)	> 225 µM (inactive)		> 225 µM (inactive)		> 225 µM (inactive)	> 225 µM (inactive)	> 225 µM (inactive)	> 225 µM (inactive)	> 225 µM (inactive)	> 225 µM (inactive)	> 225 µM (inactive)	> 225 µM (inactive)	> 225 µM (inactive)		> 225 µM (inactive)	> 225 µM (inactive)	> 225 µM (inactive)	> 225 µM (inactive)	> 225 µM (inactive)	
CCCCc1c2c(nc3c1CCCC3=O)CCCC2	> 100 µM (inactive)		> 100 µM (inactive)	41.4 µM (inactive)	> 100 µM (inactive)	> 100 µM (inactive)	50.2 µM (inactive)	> 100 µM (inactive)	> 100 µM (inactive)			> 100 µM (inactive)	> 100 µM (inactive)	> 100 µM (inactive)	> 100 µM (inactive)	> 100 µM (inactive)	> 100 µM (inactive)	> 100 µM (inactive)		> 100 µM (inactive)
CCOC(=O)C(N=C(c1ccccc1)c1ccccc1)N(C(=O)OC(C)(C)C)C(=O)OC(C)(C)C (centres undefined)	> 100 µM (inactive)	> 100 µM (inactive)	> 100 µM (inactive)	69.3 µM (inactive)	> 100 µM (inactive)	> 100 µM (inactive)	> 100 µM (inactive)		> 100 µM (inactive)	> 100 µM (inactive)		> 100 µM (inactive)					> 100 µM (inactive)	> 100 µM (inactive)	> 100 µM (inactive)	75.2 µM (inactive)
COC(c1cccc(C(O)(C(F)(F)F)C(F)(F)F)c1)(C(F)(F)F)C(F)(F)F	18.8 µM (inactive)	22.1 µM (inactive)	16.9 µM (inactive)	32.1 µM (inactive)	20.2 µM (inactive)		19.4 µM (inactive)	15 µM (inactive)	15.7 µM (inactive)	16.7 µM (inactive)	20.3 µM (inactive)	23.4 µM (inactive)	18.3 µM (inactive)	18.7 µM (inactive)	17.5 µM (inactive)		13.5 µM (inactive)	16.1 µM (inactive)		17.5 µM (inactive)
O=C1C(c2ccccc2)=[N+]([O-])c2cc([N+](=O)[O-])c(/C(Cl)=C/c3ccccc3)cc21	17.3 µM (inactive)	33.7 µM (inactive)		17.9 µM (inactive)	23.2 µM (inactive)	20.4 µM (inactive)			53.3 µM (inactive)	13.1 µM (inactive)	14.2 µM (inactive)	13.5 µM (inactive)		16 µM (inactive)	13.7 µM (inactive)	4.06 µM (inactive)		15.3 µM (inactive)	29.4 µM (inactive)	> 10 µM (inactive)
Cc1cccc(C)c1NC(=O)CCC(=O)NC(N)=S	> 100 µM (inactive)	> 100 µM (inactive)	> 100 µM (inactive)	> 100 µM (inactive)	> 100 µM (inactive)	> 100 µM (inactive)	> 100 µM (inactive)		> 100 µM (inactive)		> 100 µM (inactive)	> 100 µM (inactive)	> 100 µM (inactive)	> 100 µM (inactive)	> 100 µM (inactive)	> 100 µM (inactive)	> 100 µM (inactive)	> 100 µM (inactive)		> 100 µM (inactive)
CC1=C(O)C(=O)[C@@H]2O[C@@H]2C1=O	3.65 µM (inactive)		7.36 µM (inactive)		20.1 µM (inactive)	16.1 µM (inactive)	6.14 µM (inactive)	10.4 µM (inactive)	28.2 µM (inactive)	14.6 µM (inactive)	7.28 µM (inactive)	6.5 µM (inactive)	19 µM (inactive)		12.5 µM (inactive)	2.2 µM (inactive)	2 µM (inactive)	11.2 µM (inactive)	15.6 µM (inactive)	
CSCC[C@@H](NC(=O)[C@H](CC(C)C)NC(=O)C(Cc1cnc[nH]1)NC(=O)CNC(=O)[C@@H](NC(=O)[C@H](C)NC(=O)[C@H](Cc1c[nH]c2ccccc12)NC(=O)[C@H](CCC(N)=O)NC(=O)[C@@H](N)CC(N)=O)C(C)C)C(N)=O (some centres undefined)	> 100 µM (inactive)		> 100 µM (inactive)		> 100 µM (inactive)	> 100 µM (inactive)	> 100 µM (inactive)	> 100 µM (inactive)	> 100 µM (inactive)	> 100 µM (inactive)	> 100 µM (inactive)	> 100 µM (inactive)	> 100 µM (inactive)		99.8 µM (inactive)	> 100 µM (inactive)	> 100 µM (inactive)	> 100 µM (inactive)	> 100 µM (inactive)	
Cc1c(-c2ccc(-c3ccccc3F)cc2)nc2ccc(F)cc2c1C(=O)O [BREQUINAR SODIUM]	0.384 µM (active)	16.3 µM (inactive)	0.104 µM (active)	0.427 µM (active)	0.303 µM (active)	1.39 µM (inactive)	15.4 µM (inactive)	18.1 µM (inactive)	0.243 µM (active)	2.73 µM (inactive)	0.0875 µM (active)	3.74 µM (inactive)	0.128 µM (active)	4.7 µM (inactive)	0.0931 µM (active)	0.479 µM (active)	2 µM (inactive)	1.2 µM (inactive)		
Cc1cccc2c1Oc1cc(Cl)ccc1C2NC(=O)CN(C)C (centres undefined)	66.4 µM (inactive)	> 100 µM (inactive)	27.5 µM (inactive)	31.4 µM (inactive)	35.2 µM (inactive)	21.6 µM (inactive)				53.5 µM (inactive)	58.3 µM (inactive)		33.8 µM (inactive)	24 µM (inactive)	42.6 µM (inactive)	17.1 µM (inactive)		20.9 µM (inactive)	50.7 µM (inactive)	57.4 µM (inactive)
C=C1CC(OC)(C(O)C(=O)N[C@H]2OCO[C@H]3C2O[C@H](C[C@H](O)COC)C(C)(C)C3OC)O[C@H](C)[C@@H]1C (some centres undefined)	< 0.00773 µM (active)		< 0.00773 µM (active)		< 0.00773 µM (active)	< 0.00773 µM (active)		< 0.00773 µM (active)	< 0.00773 µM (active)	< 0.00773 µM (active)	< 0.00773 µM (active)	< 0.00773 µM (active)	< 0.00773 µM (active)		< 0.00773 µM (active)	< 0.00773 µM (active)	< 0.00773 µM (active)	< 0.00773 µM (active)	< 0.00773 µM (active)	
O=P1(Oc2ccc(Cl)cc2Cl)Oc2cc3ccccc3cc2O1	70.1 µM (inactive)		> 78.2 µM (inactive)		64.7 µM (inactive)	59 µM (inactive)	> 100 µM (inactive)	33.1 µM (inactive)	59.3 µM (inactive)	76 µM (inactive)	56.8 µM (inactive)	28.4 µM (inactive)	49.9 µM (inactive)		68.9 µM (inactive)	21.5 µM (inactive)	26.5 µM (inactive)		> 100 µM (inactive)	
O=c1[nH]cc(COCC(F)(F)C(F)(F)C(F)(F)C(F)F)c(=O)[nH]1	> 100 µM (inactive)	> 100 µM (inactive)	> 100 µM (inactive)	> 100 µM (inactive)	> 100 µM (inactive)	> 100 µM (inactive)	> 100 µM (inactive)		> 100 µM (inactive)		> 100 µM (inactive)	> 100 µM (inactive)		> 100 µM (inactive)	> 100 µM (inactive)	> 100 µM (inactive)	> 100 µM (inactive)	> 100 µM (inactive)		> 100 µM (inactive)
O=C1C(Cl)N(c2cccc([N+](=O)[O-])c2)C1c1c[nH]c2ccccc12 (centres undefined)	21.7 µM (inactive)	20.4 µM (inactive)	19.2 µM (inactive)	10.7 µM (inactive)	16.4 µM (inactive)	17 µM (inactive)	2.36 µM (inactive)		17.8 µM (inactive)	18.1 µM (inactive)		20.5 µM (inactive)	12.1 µM (inactive)	16.1 µM (inactive)		22.3 µM (inactive)	16 µM (inactive)	18.1 µM (inactive)		6.25 µM (inactive)
CCOC(=O)c1ccc(/N=C2\SC(=S)N(c3ccc(F)cc3)\C2=N/c2ccc(C(=O)OCC)cc2)cc1	12.5 µM (inactive)	18.9 µM (inactive)	14.2 µM (inactive)	2.2 µM (inactive)	14.4 µM (inactive)	10.5 µM (inactive)	15.5 µM (inactive)		48.3 µM (inactive)	12.1 µM (inactive)		20 µM (inactive)	51.9 µM (inactive)	6.75 µM (inactive)	5.73 µM (inactive)	5.78 µM (inactive)	5.97 µM (inactive)			
